For one experiment, the system named is IL-6. The experiment can be described thus: IL-6 secretion in hPBMC using R848 stimulation. Type of experiment: cell-based, human. As to conditions: Homo sapiens, 20 h; read-out: IL-6 Secretion in hPBMC, R848 as stim, t = 20 h: IC50.
For another experiment, the system named is C57BL/6 mice. Kind of experiment: IMQ (imiquimod) induced psoriasis. Type of experiment: in vivo, mouse. As to conditions: oral dosing; FIG. 36. The procedure: A model of psoriasis includes the effects of degrader on epidermal hyperplasia development induced by daily topical application of 5% imiquimod in C57BL/6 mice. On each of Days 0 to 6, mice had 5% imiquimod cream administered topically on left ear and shaved back skin. Control mice (no imiquimod group) received control cream without imiquimod. […] The last dosing was on Day 6 for all mice. All dosing was at the same time (+/−1 hour) each day. For the BID groups there was no less than 9 and no more than 15 hours between doses. Readouts were body weight, PASI score, and skin thickness. Body weight was measured 3 times/week, starting on Day −3. Once on each of Days 0, 3, 5, 6, and 7, back and ear thickness was measured with calipers. Each measurement was performed blind, by a person unaware of the group or previous measurement. On Day 7, approximately 24 hours after the last imiquimod application, all mice were euthanized and blood collected via cardiac bleed into EDTA tubes. Plasma was isolated, and frozen. Tissues of interest were removed, weighed, recorded and frozen.

For another experiment, the system named is OCI-LY10. Kind of experiment: CTG Cell Viability Assay - OCI-LY10. Type of experiment: cell-based, human. As to conditions: Homo sapiens, 96 h; OCI-LY10, 4 days; read-out: CTG Cell Viability Assay - OCI-LY10: Average external-IC50. The essentials: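 Viability read by CellTiter-Glo luminescence after 4 days at 37° C under 5% CO2 with compound (top 10 μM final, 1:3 steps, 9 doses, DMSO 0.2%). Three-parameter logistic fit gave IC50.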

What is called IC50 is the concentration at which inhibition is half-maximal.

The structures appear in SMILES notation.

For `Cn1c(=O)n(C2CCC(=O)NC2=O)c2cccc(C#CCOC3CCN(C[C@H]4CC[C@H](n5cc(NC(=O)c6cnn7ccc(N8C[C@H]9C[C@@H]8CO9)nc67)c(C(F)F)n5)CC4)CC3)c21` (stereo partly drawn) [I-417, N-[3-(difluoromethyl)-1-[4-[[4-[3-[1-(2,6-dioxo-3-piperidyl)-3-methyl-2-oxo-benzimidazol-4-yl]prop-2-ynoxy]-1-piperidyl]methyl]cyclohexyl]pyrazol-4-yl]-5-[(1R,4R)-2-oxa-5-azabicyclo[2.2.1]heptan-5-yl]pyrazolo[1,5-a]pyrimidine-3-carboxamide], the IC50 is less than 1 nM in the experiment with IL-6 and more than 1000 nM with OCI-LY10. Moreover, the “skin thickening in mice treated with topical imiquimod” value in the experiment on C57BL/6 mice was “significantly reduced skin thickening”.

The record behind these values is patent US11352350B2, “IRAK degraders and uses thereof” (Kymera Therapeutics, Inc., priority 2018, dated 2022).
